Laboratory results from patent US8575103B2, “Peptides and methods for inhibiting G alpha protein signaling” (The Board of Trustees of the University of Illinois, priority 2009, dated 2013).
“Also recorded” adds a separate entry of the source. Where no end group is shown, it is not given here. The star is where a group is joined. Myristoyl = CCCCCCCCCCCCCC(=O)*

Legend:
human platelets [1] = conditions: Huang, et al. (2007) J. Biol. Chem. 282:10210-10222; cited from earlier work
RhoA = RhoA activation in platelets; type: cell-based, human; conditions: 250 μM peptide; induced by TRAP1 (10 μM), U46619 (0.5 μM) or ADP (10 μM)
Experimental: (§1) To further investigate the mechanism(s) by which G13SR2pep (SEQ ID NO:5) inhibited α11bβ3 integrin activation, the effect of G13SR2pep on calcium flux, RhoA activation, Src activation and changes in cAMP levels was determined using conventional assays.

talin = target: T1, talin (Homo sapiens, UniProt Q9Y490); assay: peptide affinity column with solubilized human platelets, western blot for talin; type: binding
T1 construct: also purified whole talin (220 kD), the talin head domain (47 kD) and kindlin 3 (72 kD); endogenous in cells; host or cells: solubilized human platelets
T1 sequence (Q9Y490 1-433): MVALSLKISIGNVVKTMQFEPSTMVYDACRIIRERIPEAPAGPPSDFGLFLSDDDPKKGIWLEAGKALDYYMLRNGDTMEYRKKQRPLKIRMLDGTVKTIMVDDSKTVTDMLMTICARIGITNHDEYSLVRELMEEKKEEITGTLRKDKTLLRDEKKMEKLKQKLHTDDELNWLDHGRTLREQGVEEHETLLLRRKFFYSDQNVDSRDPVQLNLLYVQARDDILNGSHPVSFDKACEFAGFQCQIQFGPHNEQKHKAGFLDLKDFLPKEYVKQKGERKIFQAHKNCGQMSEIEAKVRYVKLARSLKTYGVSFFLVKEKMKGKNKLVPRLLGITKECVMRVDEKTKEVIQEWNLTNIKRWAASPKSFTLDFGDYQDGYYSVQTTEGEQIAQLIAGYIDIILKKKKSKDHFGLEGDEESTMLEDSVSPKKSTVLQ
Source text: (§2) On this basis, subsequent experiments examined whether G13SR2pep peptide (SEQ ID NO:5) does indeed directly interact with α11bβ3 and/or one of its associated proteins in human platelets. In this respect, platelet α11bβ3 integrin is known to exist in a complex with two cytoplasmic proteins, i.e., talin and kindlin-3 (Tadokoro, et al. (2003) Science 302:103-6; Moser, et al. (2008) Nature Med. 14:325-30). To determine whether G13SR2pep, (SEQ ID NO:5) interacts with any of these proteins (or with the entire α11bβ3, talin, kindlin-3 complex), peptide affinity columns using G13SR2pep (SEQ ID NO:5) were employed. The affinity purified protein(s) from solubilized human platelets that specifically bound to the G13SR2pep peptide were eluted, and analyzed by western blot for α11bβ3 integrin, talin and kindlin-3. In similar experiments, the eluates from a peptide column using the G13SR2-Random Peptide (SEQ ID NO:9) were also analyzed. Immunoblot analysis with the α11bβ3 antibodies (Abcam) detected two bands, one at 130 kD and the other at 115 kD in solubilized human platelets as well as in the elution fraction obtained from the G13SR2pep (SEQ ID NO:5) affinity column. […] This was supported by similar experiments using talin antibodies and the kindlin 3 antibody (Abcam).
Thus, the binding of G13SR2pep (SEQ ID NO:5) to the talin head domain serves as the basis for the ability of G13SR2pep to inhibit α11bβ3 integrin activation and platelet aggregation. As such, peptides or specific compounds fashioned to mimic or modify the switch region interaction with talin, α11bβ3 integrin or other α11bβ3 integrin-associated proteins would have profound effects on thrombosis and other integrin-linked disease processes.

Src = Src activation in platelets; type: cell-based, human; conditions: 250 μM peptide; induced by TRAP1 (10 μM), U46619 (0.5 μM) or ADP (10 μM)
Experimental: as §1

human platelets [2] = assay: human platelet aggregation in platelet rich plasma (PRP); type: cell-based; conditions: PRP
calcium mobilization = assay: calcium flux / calcium mobilization in platelets; type: cell-based, human; conditions: 250 μM peptide; induced by TRAP1 (10 μM), U46619 (0.5 μM) or ADP (10 μM)
Experimental: as §1

CD1 mice = assay: bleeding time in mice after intravenous administration; type: in vivo; conditions: 100 μl of 3.7 mM intravenously via tail vein, tail cut five minutes after administration
Experimental: Briefly, CD1 mice (25 grams) were anesthetized with sodium pentobarbital, and either 100 μl of vehicle or 100 μl of a vehicle solution containing 3.7 mM of each peptide or aspirin was administered intravenously via the tail vein. Five minutes following administration, the tail was cut 0.5 cm from the tip and immersed in PBS buffer (pH 7.4; 37EC). Cessation of bleeding was observed visually and the total bleeding time was recorded.

kindlin-3 = target: T2, kindlin-3 (Homo sapiens, UniProt Q86UX7); assay: peptide affinity column with solubilized human platelets, western blot for kindlin-3; type: binding; conditions: immunoblot, kindlin 3 (72 kD)
T2 construct: also purified whole talin (220 kD), the talin head domain (47 kD) and kindlin 3 (72 kD); endogenous in cells; host or cells: solubilized human platelets
Source text: as §2

cAMP levels = cAMP levels in human platelet-rich plasma; type: cell-based; conditions: 250 μM peptide
Experimental: as §1

α11bβ3 integrin [3] = target: T3, α11bβ3 integrin (Homo sapiens, UniProt P05106+P08514+Q9Y490); assay: peptide affinity column with solubilized human platelets, western blot for α11bβ3; type: binding; conditions: immunoblot, bands at 130 kD and 115 kD
T3 construct: detected two bands, one at 130 kD and the other at 115 kD in solubilized human platelets; endogenous in cells; host or cells: solubilized human platelets
Source text: as §2

α11bβ3 integrin [4] = assay: platelet α11bβ3 integrin activation, FITC-PAC1 antibody binding by flow cytometry; type: cell-based, human; conditions: 150 μM peptide, 0.5 μM U46619, FITC-PAC1, compared to 500 μM Random Peptide
Experimental: The platelet count in human PRP was adjusted to 1×10^6 platelets/ml. The platelets were then labeled with FITC-conjugated PAC1 antibody against activated α11bβ3 integrin, and the samples were analyzed by flow cytometry in a Beckman Coulter CyAn II Flow Cytometer. Trace (a) depicts resting platelets labeled with FITC-PAC-1 antibody. Trace (b) depicts platelets stimulated with 0.5 μM U46619 and labeled with FITC-PAC1 antibody. Trace (c) depicts platelets incubated with 500 μM of the Random Peptide (SEQ ID NO:9), followed by 0.5 μM U46619 stimulation and FITC-PAC1 labeling. Trace (d) depicts platelets incubated with 150 μM of the G13SR2pep, followed by 0.5 μM U46619 stimulation and FITC-PAC1 labeling.
Subsequent experiments examined the effect of G13SR2pep, (SEQ ID NO:5) on human platelet α11bβ3 integrin activation as measured by FITC-PAC-1 antibody binding.

Substance | inhibition of PAR1-induced human platelet aggregation (human platelets [1]) | RhoA activation (RhoA) | talin in affinity column eluate (talin; solubilized human platelets, immunoblot, whole talin (220 kD), talin head domain (47 kD)) | binding to talin head domain (talin; α11bβ3-talin-kindlin 3 complex dissociated, affinity column eluates) | Src activation (Src) | platelet aggregation induced by the divalent cation ionophore A23187 (human platelets [2]; 150 μM peptide, 10 μM A23187) | inhibition of human platelet aggregation stimulated by U46619 (human platelets [2]; 75-150 μM G13SR2pep (Random Peptide 500 μM), 0.5 μM U46619) | inhibition of human platelet aggregation stimulated by ADP (human platelets [2]; 75-150 μM G13SR2pep (Random Peptide 500 μM), 10 μM ADP) | inhibition of human platelet aggregation stimulated by TRAP1 (human platelets [2]; 75-150 μM G13SR2pep (Random Peptide 500 μM), 15 μM TRAP1) | inhibition of human platelet aggregation stimulated by TRAP4 (human platelets [2]; 75-150 μM G13SR2pep (Random Peptide 500 μM), 50 μM TRAP4) | calcium mobilization (calcium mobilization) | bleeding time (CD1 mice) | kindlin 3 in affinity column eluate (kindlin-3) | cAMP levels (cAMP levels) | α11bβ3 in affinity column eluate (interaction with peptide) (α11bβ3 integrin [3]) | inhibition of U46619-mediated activation of α11bβ3 integrin (α11bβ3 integrin [4])
Myr-Leu-Leu-Ala-Arg-Arg-Pro-Thr-Lys-Gly-Ile-His-Glu-Tyr (Myristoyl-LLARRPTKGIHEY) [Myr-G13SR1pep, original permeable peptide representing SR1 of the Gα13 subunit (Huang, et al. 2007)] | selectively and dose-dependently inhibited | – | – | – | – | – | – | – | – | – | – | – | – | – | – | –
VGGQRSERKRWFECFDS [G13SR2pep, non-myristoylated G13 Switch Region 2 peptide] | – | did not alter | purified | binding partner | did not alter | capable of blocking | dose-dependent inhibition | dose-dependent inhibition | dose-dependent inhibition | dose-dependent inhibition | did not alter | increased bleeding times; also recorded: substantially increases | purified | did not alter | directly interacts | dramatically inhibited
